From the NIST ThermoML archive (doi:10.1016/j.jct.2006.03.010)

Assay: xn = mol fraction of the nth substance listed
Details: 101 kPa, Liquid; for speed of sound: Linear variable-path acoustic interferometer

ClC(Cl)Cl [trichloromethane] + CCCO
Details | mass density, 298.15 K [kg/m3] | mass density, 308.15 K [kg/m3] | speed of sound, 298.15 K [m/s] | speed of sound, 308.15 K [m/s] | viscosity, 298.15 K [mPa·s] | viscosity, 308.15 K [mPa·s]
x1 = 0.0521 | 838.68 | 829.81 | 1190 | 1155 | 1.84 | 1.452
x1 = 0.0995 | 872.8 | 863.45 | 1171 | 1136 | 1.734 | 1.373
x1 = 0.1503 | 909.09 | 899.13 | 1153 | 1117 | 1.611 | 1.283
x1 = 0.2009 | 944.84 | 934.26 | 1136 | 1099 | 1.492 | 1.196
x1 = 0.2497 | 979.01 | 967.92 | 1119 | 1082 | 1.374 | 1.111
x1 = 0.3057 | 1017.84 | 1006.01 | 1102 | 1064 | 1.235 | 1.011
x1 = 0.3499 | 1048.26 | 1036.01 | 1089 | 1052 | 1.155 | 0.952
x1 = 0.4031 | 1084.7 | 1071.81 | 1074 | 1036 | 1.049 | 0.886
x1 = 0.4509 | 1117.15 | 1103.72 | 1061 | 1023 | 0.968 | 0.818
x1 = 0.5055 | 1154.04 | 1139.98 | 1046 | 1009 | 0.885 | 0.76
x1 = 0.554 | 1186.48 | 1171.86 | 1035 | 998 | 0.822 | 0.714
x1 = 0.5994 | 1216.69 | 1201.5 | 1025 | 988 | 0.776 | 0.679
x1 = 0.651 | 1250.99 | 1235.18 | 1015 | 977 | 0.727 | 0.647
x1 = 0.7033 | 1285.41 | 1269.07 | 1006 | 968 | 0.705 | 0.618
x1 = 0.7505 | 1316.56 | 1299.61 | 999 | 961 | 0.666 | 0.602
x1 = 0.7999 | 1348.87 | 1331.42 | 993 | 955 | 0.64 | 0.585
x1 = 0.8507 | 1382.01 | 1363.98 | 987 | 950 | 0.625 | 0.572
x1 = 0.9002 | 1414.19 | 1395.63 | 984 | 947 | 0.605 | 0.557
x1 = 0.9484 | 1445.46 | 1426.51 | 983 | 947 | 0.586 | 0.539
x1 = 1 | 1478.82 | 1459.45 | 985 | 950 | 0.556 | 0.513

ClC(Cl)Cl [trichloromethane] + CO
Details | mass density, 298.15 K [kg/m3] | mass density, 308.15 K [kg/m3] | speed of sound, 298.15 K [m/s] | speed of sound, 308.15 K [m/s] | viscosity, 298.15 K [mPa·s] | viscosity, 308.15 K [mPa·s]
x1 = 0.0501 | 852.42 | 842 | 1080 | 1048 | 0.587 | 0.523
x1 = 0.0959 | 907.6 | 896.56 | 1060 | 1029 | 0.612 | 0.545
x1 = 0.1501 | 967.31 | 955.55 | 1041 | 1010 | 0.635 | 0.564
x1 = 0.2007 | 1018.13 | 1005.77 | 1028 | 997 | 0.651 | 0.576
x1 = 0.2499 | 1063.89 | 1050.91 | 1017 | 986 | 0.657 | 0.584
x1 = 0.3015 | 1107.99 | 1094.32 | 1007 | 976 | 0.663 | 0.586
x1 = 0.3502 | 1146.56 | 1132.48 | 1000 | 969 | 0.66 | 0.588
x1 = 0.3966 | 1180.85 | 1166.26 | 994 | 963 | 0.658 | 0.584
x1 = 0.4498 | 1217.39 | 1202.34 | 989 | 958 | 0.651 | 0.582
x1 = 0.5047 | 1252.37 | 1236.78 | 984 | 954 | 0.641 | 0.572
x1 = 0.5506 | 1279.51 | 1263.63 | 981 | 950 | 0.633 | 0.569
x1 = 0.6033 | 1308.68 | 1292.64 | 979 | 948 | 0.619 | 0.56
x1 = 0.6515 | 1333.97 | 1317.33 | 977 | 946 | 0.612 | 0.552
x1 = 0.7032 | 1359.31 | 1342.39 | 976 | 945 | 0.601 | 0.55
x1 = 0.751 | 1381.31 | 1363.96 | 976 | 944 | 0.592 | 0.536
x1 = 0.7987 | 1402.09 | 1384.31 | 976 | 944 | 0.583 | 0.531
x1 = 0.85 | 1423.32 | 1405.26 | 977 | 945 | 0.574 | 0.523
x1 = 0.902 | 1443.49 | 1425.07 | 979 | 946 | 0.567 | 0.516
x1 = 0.9505 | 1461.44 | 1442.54 | 982 | 948 | 0.561 | 0.515
x1 = 1 | 1478.82 | 1459.45 | 985 | 950 | 0.556 | 0.513
